Reference: patent publication EP0319316A2, “Griseolic acid monoesters, their preparation and use” (SANKYO COMPANY LIMITED, priority 1987, dated 1989)

Assays:
[1] = parameters: species or system Male albino rabbits; settings: rabbit, in vivo
Method: Animals: Male albino rabbits, each weighing about 2.5 kg, were used in a group of 5 animals.
Drug preparation and administration: the compound of Example 19(b) was dissolved in a 0.1 M sodium phosphate buffer (pH 7.2) and administered topically to one eye of the rabbit twice a day at […] and 16:00 for one week, although the administration at 16:00 on the final day was not carried out. The other group was left intact as a control. Four hours after the final administration at 09:00, blood was collected from the marginal ear vein of the rabbit in a syringe, and was centrifuged to obtain the serum.
Biochemical analysis of the serum: the rabbit serum was biochemically analyzed for trigly.ceride (TG), total cholesterol (T-CHO), alkaline phosphatase (ALP), total protein (TP), phospholipid (PL), urea nitrogen (UN), glucose (GLU), transaminase (GOT and GPT), albumin (ALB), total calcium (CA), inorganic phosphorus (IP), creatinine (CRE), and ratio of albumin to globulin (A/G). The analysis was carried out by using an autoanalyzer (HITACHI, Japan).

eyes = test: Eye irritation by the Draize method (Experiment 11); format: in vivo, male New Zealand white rabbit; settings: 2% by weight solution, 0.05 ml three times a day for seven days, right eye
Method: The irritation to the eyes caused by solutions of the compound of Example 19(b) was determined by the Draize method [J.H. Draize et af., J. Pharmacol. Exp. Ther., 82,377 (1944)] and evaluated by the method of Kay and Calandra [J.H. Kay and J.C. Calandra, J. Soc. Cosmet. Chem., 13, 281 (1962)].
The test solution employed was a simple solution of 2% by weight of the test compound in 100 mM of a sodium phosphate buffer (pH 7.2) for injections and adjusted to a pH value of from 7 to 8, as required.
A male New Zealand white rabbit of body weight about 2.5 kg was placed in a pillory to fix its head. 0.05 ml of the test solution was instilled into its right eye three times a day (at 09:00, 13:00 and 17:00) for seven days. The symptoms experienced by the anterior portion of the right eye were observed every day at 18:00 over a period of seven days, and the irritation observed was scored.

**Q.** For `CC(=O)Oc1ccc(COC(=O)C23C=C(C(O)C(=O)O)OC2C(O)C(n2cnc4c(N)ncnc42)O3)cc1` (centres unmarked) [Example 19(b), 9'-(4-Acetoxybenzyl) griseolate], which A/G [1] is on record?
**A.** Its A/G is 15.6 ± 2.5.

**Q.** And the ALB [1]?
**A.** The ALB was 5.0 ± 0.1 g/dL.

**Q.** What about the ALP [1] of the same molecule?
**A.** The ALP was 379.0 ± 49.0 IU/ℓ.

**Q.** What about the CA [1] of the same molecule?
**A.** The CA was 14.0 ± 0.2 mg/dL.

**Q.** What about the CRE [1] of the same molecule?
**A.** The CRE was 0.90 ± 0.05 mg/dL.

**Q.** And the GLU [1]?
**A.** The GLU was 137.0 ± 3.0 mg/dL.

**Q.** What about the GOT [1] of the same molecule?
**A.** Its GOT is 9.6 ± 1.5 IU/ℓ.

**Q.** What about the GPT [1] of the same molecule?
**A.** The GPT was 19.6 ± 3.9 IU/ℓ.

**Q.** And the PL [1]?
**A.** Its PL is 91.8 ± 4.6 mg/dL.

**Q.** And the T-CHO [1]?
**A.** Its T-CHO is 45.0 ± 3.2 mg/dL.

**Q.** What about the TG [1] of the same molecule?
**A.** Its TG is 58.4 ± 5.4 mg/dL.

**Q.** And the TP [1]?
**A.** The TP was 5.3 ± 0.2 g/dL.

**Q.** What about the UN [1] of the same molecule?
**A.** Its UN is 17.9 ± 0.9 mg/dL.

**Q.** What about the “irritation to the eyes” value (eyes) of the same molecule?
**A.** The value was “No significant stimulus was observed”.
